Values of other authors in patent publication US6461603B2, “Water-soluble polymer conjugates of artelinic acid” (Shearwater Corporation, priority 2000, dated 2002).

| Structure (SMILES) | solubility at physiological pH (physiological pH, higher pH required for desirable solubility) | water solubility (background statement) |
| --- | --- | --- |
| C[C@H]1[C@@H](OCc2ccc(C(=O)O)cc2)O[C@@H]2O[C@]3(C)CC[C@H]4[C@H](C)CC[C@@H]1[C@@]24OO3 [sodium artelinate] | not highly soluble | – |
| C[C@@H]1CC[C@H]2[C@@H](C)C(OCc3ccc(C(=O)O)cc3)O[C@@H]3O[C@]4(C)CC[C@@H]1[C@]32OO4 (some centres unmarked) [artelinic acid] | – | low |
